In patent US9573907B2, “2, 4-pyrimidine derivatives and use thereof” (SNU R&DB FOUNDATION, priority 2009, dated 2017):

How the values were obtained:
[1] = molecular target: T1, gp96 Y731F (Homo sapiens, UniProt P14625, Y735F); assay: Surface plasmon resonance, GPM1 binding to gp96 mutant Y731F
T1 construct: made in house; host or cells: Escherichia coli BL21 (DE3)
Method: (§1) Human gp96 was expressed as His tag fusion protein in Escherichia coli BL21 (DE3) and purified by nickel affinity chromatography. His-tagged human gp96 was immobilized onto CM5 sensor chips using standard amine coupling2. PBS was used as a running buffer. The carboxymethyl dextran surface within one side of the flow cell was activated with a 7-min injection of a 1:1 ratio of 0.4M EDC and 0.1M NHS. The protein was coupled to the surface with a 7-min injection of gp96 diluted in 10 mM sodium acetate, pH 3.7. Remaining activated groups were blocked with a 7-min injection of 1.0M ethanolamine, pH 8.5. GPM1 compound was dissolved directly in the PBS running buffer containing 1% DMSO and injected at a flow rate of 20 μl/min at 25° C. and the binding was determined by the change in resonance units (RU). The compound concentration varied from 10 nM to 25 μM and each concentration was tested at least three times. All of the bound complexes dissociated back to baseline within a reasonable time frame. Therefore, no regeneration was required. Sensorgram was processed by subtracting the binding response recorded from the control surface, followed by subtracting an average of the buffer blank injections from the reaction spot. To determine kinetic rate constants, all data sets were fit to a simple 1:1 binding with drifting baseline model using BIAevaluation program.
(§2) The present inventors compared the dose-dependent effect of GPM1 and NC1 on the interaction of gp96 and AIMP1 using ELISA. […] The present inventors monitored the binding kinetics of GPM1 to gp96 or AIMP1 by surface plasmon resonance (SPR) using BIAcore 3000. […] To further define the GPM1 binding region of gp96 (Han, J. M., Park, S. G., Liu, B., Park, B. J., Kim, J. Y., Jin, C. H., Song, Y. W., Li, Z. & Kim, S. Am. J. Pathol. 170, 2042-2054 (2007)), the present inventors introduced point mutations at L707, V706, V712, L713, F714, Y731 and M738 that are located within AIMP1 binding region of gp96 and monitored how the mutations at these sites would affect the binding of GPM1 to gp96 using SPR method.

[2] = molecular target: T2, gp96 M738L (Homo sapiens, UniProt P14625, M742L); assay: Surface plasmon resonance, GPM1 binding to gp96 mutant M738L
T2 construct: made in house; host or cells: Escherichia coli BL21 (DE3)
Method: as §1, §2

[3] = molecular target: T3, gp96 V712A/L713A/F714Y (Homo sapiens, UniProt P14625, F718Y/L717A/V716A); assay: Surface plasmon resonance, GPM1 binding to gp96 mutant V712A/L713A/F714Y
T3 construct: made in house; host or cells: Escherichia coli BL21 (DE3)
Method: as §1, §2

[4] = molecular target: T4, gp96 V706A/L707A (Homo sapiens, UniProt P14625, L711A/V710A); assay: Surface plasmon resonance, GPM1 binding to gp96 mutant V706A/L707A
T4 construct: made in house; host or cells: Escherichia coli BL21 (DE3)
Method: as §1, §2

[5] = system: cell surface gp96 of splenocytes isolated from C57BL/6 mice; assay: Flow cytometry of cell surface gp96 on splenocytes; format: cell-based; conditions: 10 μM, 24 h
Method: FIGS. 1 to 9 represent suppression of cell surface gp96 by GPM1 reduces DC maturation and B220^+ population in gp96tm transgenic mice. (FIG. 1) Chemical structure of GPM1 (Formula 2) and negative control (NC1, Formula 16) used in this study. (FIG. 2) The dose-dependent effect of GPM1 or NC1 on the AIMP1-gp96 interaction using ELISA method as described. The indicated concentrations of the two compounds and biotin-conjugated murine gp96 were added to AIMP1 coated on the surface of microtiter wells, and gp96 bound to AIMP1 was detected with strepavidin-conjugated peroxidase. (FIG. 3) The binding of GPM1 to gp96 was examined by surface plasmon resonance (SPR). GPM1 at the indicated concentrations was injected to immobilized gp96 and the binding was measured using Biacore 3000. The response data were processed using data from a reference surface and buffer injections. Each concentration was tested in triplicate. (FIG. 4) RAW24.7 cells were treated with 10 μM GPM1 for 24 h. Cell lysates were immunoprecipitated with control IgG or anti-gp96 antibody and the immunoprecipitated proteins were immunoblotted with anti-KDELR1, antiAIMP1 and gp96 antibodies. WCL means whole cell lysate. […] TNFα secreted from BMDCs was quantified by ELISA. […]

T4 sequence (P14625 22-803 V710A/L711A): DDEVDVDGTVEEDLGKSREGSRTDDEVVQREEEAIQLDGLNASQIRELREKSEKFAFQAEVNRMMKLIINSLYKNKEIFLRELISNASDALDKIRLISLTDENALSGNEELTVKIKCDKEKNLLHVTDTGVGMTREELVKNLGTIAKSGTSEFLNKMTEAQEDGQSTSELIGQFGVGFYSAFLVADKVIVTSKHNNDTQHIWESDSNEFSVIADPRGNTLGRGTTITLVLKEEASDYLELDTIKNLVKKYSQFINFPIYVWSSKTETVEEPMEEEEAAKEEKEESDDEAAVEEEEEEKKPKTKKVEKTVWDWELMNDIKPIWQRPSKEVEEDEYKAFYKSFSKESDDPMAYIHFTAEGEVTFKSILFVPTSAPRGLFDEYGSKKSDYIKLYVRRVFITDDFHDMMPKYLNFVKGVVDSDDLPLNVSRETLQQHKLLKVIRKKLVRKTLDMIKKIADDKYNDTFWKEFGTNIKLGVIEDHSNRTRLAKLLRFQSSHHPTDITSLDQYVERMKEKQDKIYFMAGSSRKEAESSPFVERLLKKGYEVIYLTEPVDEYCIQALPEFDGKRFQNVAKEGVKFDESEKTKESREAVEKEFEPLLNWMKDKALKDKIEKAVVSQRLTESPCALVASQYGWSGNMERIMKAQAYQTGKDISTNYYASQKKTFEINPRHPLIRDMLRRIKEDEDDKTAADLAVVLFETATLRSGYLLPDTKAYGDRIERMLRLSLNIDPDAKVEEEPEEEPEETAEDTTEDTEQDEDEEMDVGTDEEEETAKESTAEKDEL
T1 sequence (P14625 22-803 Y735F): as the sequence (P14625 22-803 V710A/L711A) above, with A689V, A690L, Y714F counted along it
T2 sequence (P14625 22-803 M742L): as the sequence (P14625 22-803 V710A/L711A) above, with A689V, A690L, M721L counted along it
T3 sequence (P14625 22-803 V716A/L717A/F718Y): as the sequence (P14625 22-803 V710A/L711A) above, with A689V, A690L, V695A, L696A, F697Y counted along it

Q: With `COC(=O)[C@@H](Oc1nc(OC)cc(OC)n1)C(C)C` [GPM1, (S)-methyl 2-(4,6-dimethoxypyrimidin-2-yloxy)-3-methylbutanoate] as the molecule, how does the Kd [1] read?
A: 0.73 µM

Q: What about the “koff (dissociation rate constant)” value [1] of the same molecule?
A: 0.0149 s⁻¹

Q: What about the kon ([1]; read-out: Ka) of the same molecule?
A: 20400 M⁻¹ s⁻¹

Q: What about the Kd [2] of the same molecule?
A: 0.21 µM

Q: And the “koff (dissociation rate constant)” value [2]?
A: 0.0132 s⁻¹

Q: And the kon ([2]; read-out: Ka)?
A: 63000 M⁻¹ s⁻¹

Q: And the Kd [3]?
A: 21.9 µM

Q: What about the “koff (dissociation rate constant)” value [3] of the same molecule?
A: 0.0142 s⁻¹

Q: And the kon ([3]; read-out: Ka)?
A: 650 M⁻¹ s⁻¹

Q: What about the Kd [4] of the same molecule?
A: 0.0886 µM

Q: And the “koff (dissociation rate constant)” value [4]?
A: 0.0102 s⁻¹

Q: What about the kon ([4]; read-out: Ka) of the same molecule?
A: 115000 M⁻¹ s⁻¹

Q: And the “surface gp96 of mouse splenocytes” value [5]?
A: decreased
